Experimental data reported in article PMC10631261 (Chemical Science, 2023).
“And” between values parts separate entries of the source, which are not always exact repeats. Identical values can stand only once. Like-named read-outs stand apart in the source and are kept apart here.

How the values were obtained:
[1] = molecular target: T1, FIH (Homo sapiens, UniProt Q9NWT6); test: SPE-MS FIH inhibition assay; format: biochemical; conditions: for reduction of FIH inhibition compared to 4: IC50 comparison with compound 4
T1 construct: made in house
T1 sequence (Q9NWT6 whole entry): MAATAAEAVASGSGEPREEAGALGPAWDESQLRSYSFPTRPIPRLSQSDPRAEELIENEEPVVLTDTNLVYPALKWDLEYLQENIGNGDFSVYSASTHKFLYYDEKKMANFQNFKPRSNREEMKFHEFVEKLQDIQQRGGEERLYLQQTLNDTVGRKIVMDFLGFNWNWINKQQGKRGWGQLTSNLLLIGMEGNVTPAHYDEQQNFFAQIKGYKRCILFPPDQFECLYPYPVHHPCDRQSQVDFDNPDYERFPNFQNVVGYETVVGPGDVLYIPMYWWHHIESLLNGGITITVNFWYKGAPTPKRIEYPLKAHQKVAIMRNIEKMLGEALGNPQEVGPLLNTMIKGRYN
Experimental: (§1) Protein production and purification
(§2) PAGE analysis) according to established procedures.
(§3) FIH, PHD2, AspH, JMJD5 and KDM4A inhibition assays
(§4) The in vitro FIH,1, 2 PHD2,1 AspH,38 JMJD536 and KDM4A39 inhibition assays were performed as […]
(§5) KDM4A). Synthetic peptide substrates were used: HIF-1α C-terminal transactivation domain fragment […]
(§6) H3Lys9 bearing three methyl groups at the N ϵ position, H3Lys4 substituted by an Ala and H3Lys14 substituted by an Ile residue) for KDM4A.39 Peptides were prepared as C-terminal amides by GL Biochem (Shanghai) Ltd. Peptide hydroxylation in the case of FIH, PHD2, AspH and JMJD5 (+16 Da mass shift) or peptide demethylation in the case of KDM4A ( -14 Da mass shift) was monitored by SPE-MS. […]

[2] = molecular target: PHD2 (Homo sapiens, UniProt Q9GZT9); test: biochemical
Sequence of PHD2 (Q9GZT9 181-426): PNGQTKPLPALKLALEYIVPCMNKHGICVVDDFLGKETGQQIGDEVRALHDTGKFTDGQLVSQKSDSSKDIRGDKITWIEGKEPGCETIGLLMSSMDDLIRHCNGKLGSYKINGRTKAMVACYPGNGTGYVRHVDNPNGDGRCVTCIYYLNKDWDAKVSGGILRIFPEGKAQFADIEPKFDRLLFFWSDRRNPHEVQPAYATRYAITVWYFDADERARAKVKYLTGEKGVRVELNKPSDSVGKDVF
Experimental: (§7) 3. Biochemical procedures
as §1, §2, §3, §4, §5, §6

[3] = molecular target: AspH (Homo sapiens, UniProt Q12797); test: biochemical
Sequence of AspH (Q12797 315-758): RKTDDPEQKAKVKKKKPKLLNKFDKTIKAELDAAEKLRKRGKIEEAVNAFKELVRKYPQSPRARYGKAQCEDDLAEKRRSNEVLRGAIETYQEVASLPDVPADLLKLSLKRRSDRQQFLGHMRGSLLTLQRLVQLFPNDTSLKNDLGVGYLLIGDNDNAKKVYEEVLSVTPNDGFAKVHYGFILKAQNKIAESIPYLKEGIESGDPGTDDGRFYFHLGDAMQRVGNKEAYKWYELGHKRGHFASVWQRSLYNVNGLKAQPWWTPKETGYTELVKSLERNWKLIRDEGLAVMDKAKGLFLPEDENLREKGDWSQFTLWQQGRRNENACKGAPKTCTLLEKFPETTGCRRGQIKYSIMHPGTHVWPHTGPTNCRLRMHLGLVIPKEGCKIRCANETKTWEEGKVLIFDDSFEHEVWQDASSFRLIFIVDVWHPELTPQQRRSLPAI
Description: (§8) To investigate the potential of BNS for selective FIH inhibition, its selectivity was investigated with respect to other 2OG-dependent protein oxidising enzymes, that is PHD2, Jumonji-C domain-containing protein 5 (JMJD5), aspartate/asparagine-β-hydroxylase (AspH) and KDM4A, using reported SPE-MS inhibition assays.[58,61,69,70] In addition to PHD2 and KDM4A, we included AspH and JMJD5 in our selectivity studies, because AspH, like FIH, catalyses protein aspartate- and asparagine-residue hydroxylation (although in epidermal growth factor-like domains),[71,72] and because JMJD5 is structurally closely related to FIH.[73,74]
as §7, §1, §2, §3, §4, §5, §6

[4] = molecular target: JMJD5 (Homo sapiens, UniProt Q8N371); test: biochemical
Sequence of JMJD5 (Q8N371 whole entry): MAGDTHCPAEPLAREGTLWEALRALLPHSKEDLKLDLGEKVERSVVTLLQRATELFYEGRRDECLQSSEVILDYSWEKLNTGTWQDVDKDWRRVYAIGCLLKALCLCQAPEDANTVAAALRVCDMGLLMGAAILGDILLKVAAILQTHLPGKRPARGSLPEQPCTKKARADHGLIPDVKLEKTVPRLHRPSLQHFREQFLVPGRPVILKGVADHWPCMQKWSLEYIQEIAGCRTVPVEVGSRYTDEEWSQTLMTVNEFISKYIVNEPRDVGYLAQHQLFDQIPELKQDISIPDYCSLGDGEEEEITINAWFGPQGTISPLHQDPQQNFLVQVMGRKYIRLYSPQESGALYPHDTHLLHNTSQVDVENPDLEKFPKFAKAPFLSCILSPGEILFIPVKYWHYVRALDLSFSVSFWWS
Description: as §8, §7, §1, §2, §3, §4, §5, §6

[5] = molecular target: KDM4A (Homo sapiens, UniProt O75164); test: biochemical; format: biochemical
Sequence of KDM4A (O75164 1-359): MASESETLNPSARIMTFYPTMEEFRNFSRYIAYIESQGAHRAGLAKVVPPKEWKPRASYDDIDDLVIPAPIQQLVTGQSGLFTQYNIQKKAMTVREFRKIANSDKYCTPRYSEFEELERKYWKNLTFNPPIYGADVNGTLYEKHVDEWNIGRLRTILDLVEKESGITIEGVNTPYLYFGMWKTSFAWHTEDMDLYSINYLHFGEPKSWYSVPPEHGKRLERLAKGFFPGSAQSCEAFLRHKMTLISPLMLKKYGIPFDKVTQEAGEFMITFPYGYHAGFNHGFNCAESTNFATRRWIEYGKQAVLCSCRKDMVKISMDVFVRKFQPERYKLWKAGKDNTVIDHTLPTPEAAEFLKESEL
Description: as §8, §7, §1, §2, §3, §4, §5, §6

[6] = 0.15 μM FIH, 10.0 μM 2OG, 5.0 μM HIF-1α C-TAD788–822, SPE-MS, read-out: FIH IC50

SMILES	IC50 [1]	IC50 [2]	IC50 [3]	IC50 ([4]; read-out: JMJD5 IC50)	IC50 [5]	IC50 [1, 6]	increase in FIH inhibitory activity compared with other PHD inhibitors ([1]; as judged by IC50 comparison, ESI Table S1)	selectivity for FIH inhibition over PHD2 inhibition ([1]; as judged by IC50 values)	IC50 ([2]; 0.15 μM PHD2 181–426, 10.0 μM 2OG, 5.0 μM HIF-1α CODD556–574, SPE-MS)	reduction of FIH inhibition compared to 4 [1]	selectivity for FIH inhibition over JMJD5 inhibition ([1]; as judged by IC50 values)	IC50 [4]
O=C(O)Cc1cs/c(=N\C(=O)C2CCCN(S(=O)(=O)c3ccccc3)C2)n1O (stereo not shown) [compound 27]	870 ± 40 nM	11 ± 1.6 µM	49.1 ± 1.7 µM	13.4 ± 1 µM	> 100 µM							
O=C(O)Cc1cs/c(=N\C(=O)CNc2ccccc2)n1O [compound 23]	3200 ± 1100 nM		11.1 ± 0.4 µM	4.7 ± 1.1 µM	71.6 ± 11.8 µM							
CNC(=O)Cc1cs/c(=N\C(=O)CS(=O)(=O)c2ccccc2)n1O [compound 10]	> 100000 nM	> 100 µM	43.6 ± 3.7 µM	77.5 ± 23.8 µM	> 100 µM							
COc1ccc(S(=O)(=O)N2CCC(C(=O)N=c3scc(CC(=O)O)n3O)C2)cc1 (stereo not shown) [compound 36]	460 ± 10 nM	9.8 ± 0.5 µM	36.6 ± 2.8 µM	16 ± 6.8 µM	> 100 µM							
O=C(O)Cc1csc(=NC(=O)C2CCN(S(=O)(=O)c3ccc(Cl)cc3)C2)n1O (stereo not shown) [compound 35]	460 ± 10 nM	9.2 ± 0.4 µM	28.8 ± 8.9 µM	37.7 ± 0.9 µM	> 100 µM							
O=C(O)Cc1cs/c(=N\C(=O)CS(=O)(=O)c2ccccc2)n1O [compound 4]	280 nM		9.6 ± 1.3 µM	0.48 ± 0.01 µM	> 100 µM							
O=C(O)CNC(=O)c1c(O)cc(CCc2ccccc2)n2ncnc12 [Enarodustat, reference compound]	> 100000 nM											
N#CCc1cs/c(=N\C(=O)CS(=O)(=O)c2ccccc2)n1O [compound 11]	> 100000 nM	> 100 µM	> 100 µM	> 100 µM	> 100 µM							
O=C(O)CNC(=O)c1c(O)c2ccccc2n(OCC2CC2)c1=O [Desidustat, reference compound]	41400 ± 1100 nM											
CCOC(=O)Cc1cs/c(=N\C(=O)CS(=O)(=O)c2ccccc2)n1O [compound 3]	> 100000 nM	> 100 µM	68 ± 26.8 µM	> 100 µM	> 100 µM							
O=C(O)CNC(=O)C1=C(O)CCN(Cc2ccc(Oc3ccc(Cl)cc3)nc2)C1=O [TP0463518, reference compound]						39700 ± 600 nM						
O=C(O)Cc1cs/c(=N\C(=O)COc2ccccc2)n1O [compound 22]	750 ± 230 nM		20.2 ± 6.6 µM	1.2 ± 0.2 µM	> 100 µM							
O=C(O)Cc1cs/c(=N\C(=O)CS(=O)(=O)Cc2ccc3ccccc3c2)n1O [BNS, reference compound]	300 ± 70 nM		3.36 µM and 3.4 µM	0.25 ± 0.01 µM	67.4 ± 39.8 µM		> 50 fold	~0.4 fold	0.11 µM			
O=C(O)Cc1cs/c(=N\C(=O)CCNS(=O)(=O)c2ccccc2)n1O [compound 20]	1000 ± 100 nM	6.5 ± 1.8 µM	23.3 ± 10.1 µM	13.4 ± 6.5 µM	> 100 µM			~6 fold		~3 fold	~13 fold	
O=C(CS(=O)(=O)c1ccccc1)/N=c1\sccn1O [compound 8]	> 100000 nM	> 100 µM	> 100 µM	> 100 µM	> 100 µM							
CC1(C(=O)/N=c2\scc(CC(=O)O)n2O)CCN(S(=O)(=O)c2ccccc2)C1 (stereo not shown) [compound 29]	> 100000 nM	> 100 µM	> 100 µM	> 100 µM	> 100 µM							
O=C(O)Cc1csc(=NC(=O)C2CCN(S(=O)(=O)c3cccs3)C2)n1O (stereo not shown) [compound 41]	470 ± 70 nM	11.2 ± 2.3 µM	30.3 ± 8 µM	15.4 ± 7.1 µM	> 100 µM							
O=C(O)Cc1csc(=NC(=O)C2CCN(S(=O)(=O)c3ccc4ccccc4c3)C2)n1O (stereo not shown) [compound 40]	450 ± 80 nM	5.2 ± 1.1 µM	40.1 ± 2.2 µM	62.8 ± 0.4 µM	> 100 µM							
CC(C(=O)O)c1cs/c(=N\C(=O)CS(=O)(=O)c2ccccc2)n1O (stereo not shown) [compound 6]	61000 ± 3100 nM		25.6 ± 12.7 µM		> 100 µM					> 100 fold		60.5 ± 1 µM
O=C(O)c1cnn(-c2nc3cc(OC(F)(F)F)c(Cl)cc3[nH]2)c1 [JNJ-42041935, reference compound]						56400 ± 1600 nM						
O=C(O)Cc1cs/c(=N\C(=O)CCS(=O)(=O)c2ccccc2)n1O [compound 15]	300 ± 50 nM	2.7 ± 0.2 µM	33 ± 12.1 µM	3.3 ± 1.5 µM	> 100 µM							
